# From ChEMBL document CHEMBL3507680, “University of Dundee, Gates Library screen for HepG2 cell viability”
# Assay: Human HepG2 cell viability assay in 384 well format
# Assay type: toxicity, cell-based
# Design: dose 125 nL, time 70.5 hour; cytotoxicity at 70.5 h: concentration not given beside the values
# Conditions: HepG2 cells, read-out: Inhibition
row,SMILES,cytotoxicity at 70.5 h
1,Cn1cnc2c1CCN(CC(=O)N(Cc1ccsc1)C1CC1)C2,0.271%
2,Cc1nc(C(=O)N2CCCC(c3ccc4sc(N)nc4n3)C2)co1 (configuration not stated),-7.73%
3,CCOc1ccccc1C(=O)Nc1cccc(C[S+](C)[O-])c1C (configuration not stated),15.1%
4,COC(=O)[C@H]1CN(S(C)(=O)=O)CCN1S(C)(=O)=O,-2.09%
5,CC1(C)Cc2c(cnn2-c2ccccc2)C(NC2CCSCC2)C1 (configuration not stated),-5.66%
6,CCC1=N[C@@]2(CC[C@@H]3CN(C(=O)NCC(C)C)C[C@@H]32)C(=O)N1CC1CC1,-2.4%
7,Cc1c[nH]cc1C(=O)N1CCN(Cc2nc(C(C)C)no2)CC1,-15.1%
8,CS(=O)(=O)NCCNC(=O)NC1(c2ccc(Cl)cc2)CCC1,16.5%
9,Cc1oncc1C(=O)N1CCC2(CCN(Cc3cccnc3)C2=O)C1 (configuration not stated),-3.48%
10,O=C(Nc1ccccc1OCC(F)F)N[C@@H]1C=C[C@H](CO)C1,4.97%
11,CCc1cnc(NCC2OCCc3ccccc32)nc1 (configuration not stated),3.74%
12,Cc1cnc(-c2nc(NC3CC3)ncc2-c2onc(C)c2C)cn1,-4.72%
13,CN(C)c1cc2c(nn1)CCN(C(=O)C1Cc3ccccc3S1)C2 (configuration not stated),-8.43%
14,CC(C)N1CCOCC2(CN(Cc3nccs3)CCO2)C1 (configuration not stated),-0.368%
15,CCn1cc(N)c(-c2nnc3n2CCC3)n1,13.1%
16,CCCOc1ccccc1NCC(=O)Nc1ccc(CC)cc1,-6.36%
17,O=C(c1csc(-c2ccco2)n1)N(CC1CCOC1)C1CC1 (configuration not stated),4.66%
18,OC(CN1CCN(Cc2cccnc2)CC1)c1cccs1 (configuration not stated),-3.13%
19,Cc1ccc(OCCCSC2=NCCN2)cc1,-3.22%
20,Cc1ncsc1C(=O)NC1CCN(CC(=O)NCc2ccccc2)CC1,2.21%
21,CCN1CCN(c2ccc(CNC(=O)c3c(C)noc3C)cn2)CC1,21.7%
22,Cc1cc(C(=O)N2CCCC(c3nccn3Cc3cscn3)C2)on1 (configuration not stated),-6.42%
23,C=C(C)CN1CCC(Nc2nc(C)ns2)CC1,-0.501%

row,SMILES,cytotoxicity at 70.5 h
1,C[C@@H]1C[C@H]2CN(C(=O)c3cccc4c3OCCO4)C[C@H]2O1,-8.32%
2,CN(C)C(=O)c1ccc(OC2CCOCC2)cc1,-15.1%
3,Cc1ccc(C(=O)N2CCc3ncnc(C)c3CC2)cc1F,6.96%
4,CN1CCCc2cc(CNC(=O)c3cccnc3O)ccc21,-1.9%
5,Cc1nn(C(C)C)c(C)c1NC(=O)c1ccc(F)cc1,-2.59%
6,Cc1cnn(CC2CCCN2C(=O)CCc2ccsc2)c1 (configuration not stated),-5.3%
7,Cn1cc(C2SCC(=O)Nc3c2c(=O)[nH]n3C2CCOCC2)cn1 (configuration not stated),17.2%
8,Nc1ncccc1CN1C[C@@H](C(=O)O)[C@H](c2cccc(F)c2)C1,1.75%
9,COCCS(=O)(=O)Nc1ccc(-n2nccc2C(F)(F)F)cc1,18.2%
10,COc1ccc(CCC(=O)N2CCNCC2C(=O)N2CCOCC2)cc1 (configuration not stated),-7.95%
11,CCC(=O)N1CCC(c2cncc(Oc3cccnc3)n2)CC1,-5.07%
12,Cc1cc(C)c2cc(CNC(C)C)c3nn(C)c(=O)n3c2c1,-1.75%
13,CCc1cc(NCCCNS(C)(=O)=O)nc(-c2ccncc2)n1,-9.08%
14,CN(Cc1cc2cc(F)ccc2[nH]1)C(=O)C1CC(=O)N(C(C)(C)C)C1 (configuration not stated),-1.21%
15,CCNc1nc(N(C)C)nc(-n2cnc(SC)n2)n1,-12%
16,COCC(NC1CCSCC1)c1ccnn1C (configuration not stated),21.8%
17,CN(C)C(=O)N[C@H]1CN(Cc2ccc3c(c2)OCO3)[C@@H]2CCCO[C@H]12,-12.8%
18,Cc1cc(N(C)CCCn2cccn2)nc(-c2cccnc2)n1,11.2%
19,Cc1nc(C(C)C)ncc1C(=O)N1CCc2c(nc(N(C)C)[nH]c2=O)C1,-4.39%
20,Fc1cccc(OC2CCN(CCn3cc4ccccc4n3)CC2)c1,-21.6%
21,OC1(CNCc2cnc(N3CCOCC3)nc2)CCCCC1,-5.66%
22,Cc1ccc(C(C(=O)N2CCC(Cc3noc(C)n3)CC2)N(C)C)cc1 (configuration not stated),-8.55%
23,O=C(c1cccn1Cc1cccs1)N1CCCC1Cn1cccn1 (configuration not stated),-20.8%

row,SMILES,cytotoxicity at 70.5 h
1,O=C(NC1CC1)N1CCC2(CC1)CC(N1CCOCC1)c1ccccc12 (configuration not stated),-10.8%
2,Cc1ccc(CN(CCCN(C)C)Cc2cnc(C)n2C)o1,6.53%
3,COc1ccc(CNC(=O)Nc2ccc(=O)n(C)c2)cc1,-3.5%
4,Cc1c(CCC(=O)N2CCOC(c3cnccn3)C2)cnn1C (configuration not stated),-2.28%
5,CC(=O)N1CC[C@@]2(O)CCCC[C@H]2[C@@H]1c1ccccc1,-0.54%
6,CCc1noc(C(C)N2CCN(S(=O)(=O)N3CCCC3)CC2)n1 (configuration not stated),-8.69%
7,COc1cc(C(=O)NC(CC(=O)O)c2cccs2)cc(OC)c1C (configuration not stated),-6.87%
8,Cc1cccc(NCc2nn(C)c(=O)[nH]2)c1,-11%
9,CN(C)C(=O)c1nnc2ccc(N3CCOCC3)cc2n1,-2.48%
10,Cc1ccc2c(c1)C1(CCNCC1)CN2C(=O)C(C)C,18.3%
11,C[C@@H]1CN(C2(C(=O)N3CCCCCC3)Cc3ccccc3C2)C[C@H](C)O1,-7.47%
12,CNC(=O)[C@H]1C[C@@H]2CN(C(=O)c3ccoc3)C[C@@H]2N1S(C)(=O)=O,-12%
13,Cc1cc(CN2CCCC2)cc(Oc2nc(C)cnc2C)c1,-5.62%
14,CC(C)C(NC(=O)NCC1(CO)CC1)c1nnc2n1CCC2 (configuration not stated),-4.32%
15,COc1ccc2[nH]cc(-c3ccnc(NC4CCCC4)n3)c2c1,-0.782%
16,Cc1ccccc1C(=O)NC[C@@H]1CCN(C(=O)C2(O)CCCC2)C[C@H]1O,-4.64%
17,CC(=O)Nc1ccc(Cl)c(C(=O)N(C)C(C)c2ccncn2)c1 (configuration not stated),-0.237%
18,COc1ccc(C)cc1C(=O)NC1(C#N)CCOCC1,-2.79%
19,COCCn1ccc2cc(C(=O)NC3CCOC(C)(C)C3)ccc21 (configuration not stated),-2.78%
20,Cc1cc(F)cc2c(NCC(C)(C)C(N)=O)c(C#N)cnc12,11.6%
21,CN1CC2(COCCN(C(=O)c3ccco3)C2)OCC1=O (configuration not stated),6.17%
22,CN(C)Cc1nn(C)c2c1CCN(C(=O)CC1CC1)C2,39.3%
23,CCOCc1nc2c(c(NCc3cc(C)on3)n1)CCN(C(C)=O)CC2,-7.96%

row,SMILES,cytotoxicity at 70.5 h
1,Cc1nc(N2C[C@H]3CC[C@@H](C2)N3)nc2cc(S(C)(=O)=O)ccc12,-2.58%
2,Cc1cc(NC(=O)NCc2ccc(C)s2)no1,-8.73%
3,Cc1nc(CN2C[C@@H]3CN(C(=O)c4ccoc4C)C[C@@H]3C2=O)cs1,-10%
4,c1cc(CNCCc2cn3ccccc3n2)c2c(c1)OCCCO2,-6.72%
5,CC(=O)c1cnc(NCCN2CCCC(c3ccccc3)C2)nc1C (configuration not stated),14.2%
6,CC(=O)N(Cc1ncc(C)o1)C1CCN(Cc2noc(C)n2)C1 (configuration not stated),-5.31%
7,CC(C)n1cc(S(=O)(=O)N2CCCC(N3CCCCC3)C2)cn1 (configuration not stated),-16.1%
8,CCOc1ccc(C(=O)N(CCOC)Cc2c(C)nn(CC)c2C)o1,-6.36%
9,O=C(O)c1ncccc1OCC(F)(F)F,-0.00705%
10,Cn1cc(CN2CCO[C@H]3CN(Cc4ccsc4)C[C@H]32)cn1,-14%
11,COC1CCN(S(=O)(=O)N2CC(c3ccccc3)C(C)(C)C2)CC1 (configuration not stated),27.1%
12,CCCNC(=O)C1CCN(CC(O)c2ccccc2)CC1 (configuration not stated),-10.6%
13,CN(CCO)C(=O)c1coc(CN2CCN(c3ccccc3F)CC2)n1,-7.76%
14,Cc1n[nH]c(C)c1NC(=O)NCc1cc[nH]n1,-12.5%
15,CCn1ccnc1CN1CCN(c2cc(C)nc(C3CCCN3)c2)CC1 (configuration not stated),-5.1%
16,COc1ccccc1N1CCN(C(=O)NC(C)c2nncn2C)CC1 (configuration not stated),-5.73%
17,CCOCC(=O)NCc1cc(C2CC2)n(C2CCCC2)n1,0.0223%
18,N#Cc1nccnc1N1CCC(Cc2ccccc2)C1 (configuration not stated),-3.44%
19,Cn1cncc1CN1CCC2(CCCN2c2ncccn2)CC1,-8.23%
20,Cc1nccc(N[C@H]2CN(CC(C)(C)N3CCOCC3)C[C@@H]2C2CC2)n1,20.2%
21,O=C(c1cccnc1OCC(F)(F)F)N1CCCn2ncnc21,14.8%
22,Cc1ccc(S(=O)(=O)CCC(=O)NCc2nnc3n2CCC3)cc1,-3.09%
23,Nc1ncc(C(=O)N2CCN(c3nccs3)CC2)cc1Cl,-4.3%

row,SMILES,cytotoxicity at 70.5 h
1,CC(Cn1ccnc1)NC(=O)N(C)Cc1ccc2c(c1)OCCO2 (configuration not stated),26.7%
2,Cc1cc(C(=O)NCc2cccs2)c2c(C3CCCN3)noc2n1 (configuration not stated),-6.49%
3,Cc1cnn(C2CCCN(C(=O)c3ccc(OCC4CC4)nc3)C2)c1 (configuration not stated),-3.84%
4,CS(=O)(=O)CCn1ccc(NC(=O)CCc2cccc(F)c2)n1,-3.41%
5,Cc1cc(N2CCC(O)(CN(C)C)C2)c2cc3c(cc2n1)OCO3 (configuration not stated),44.8%
6,O=C1CCC(=O)N1Cc1ccc(C(=O)N2CCCC2c2cccs2)cc1 (configuration not stated),-11.1%
7,CCc1cnc(N2CCC3(CC2)CN(c2cccnc2)C(=O)CO3)nc1,23.8%
8,CN(C)c1cc(CNC(=O)c2ccc(=O)[nH]n2)ccn1,1.83%
9,CC(O)(CNC(=O)NCCc1ccc2c(c1)CCO2)c1ccccc1 (configuration not stated),-0.353%
10,CN1CCS(=O)(=O)[C@@H]2CCN(C(=O)c3ccccc3)CC[C@@H]21,-9.02%
11,O=C(Cc1ccc(F)cc1)NCCNCC1CNc2ccnn2C1 (configuration not stated),16.6%
12,CC(=O)N(C)CC(=O)Nc1cccc(N2CCN(CC3CC3)CC2)c1,-7.37%
13,O=C(NCC1(CO)CC1)c1nnn(-c2ccc(F)cc2)c1C1CC1,-4.26%
14,CCC(=O)CNC(=O)CCn1nc2ccccn2c1=O,-1.88%
15,Cc1ncc2c(c1CNC(=O)C1(C)CCCCO1)CCNC2 (configuration not stated),0.49%
16,Cn1cc(C(=O)N2C[C@H]3C[C@H](Oc4ccccc4)C[C@H]3C2)cn1,-3.01%
17,COc1ccc(CNC(=O)NC2CCN(CC3CCCC3)CC2)cn1,-9.34%
18,CC(C)[C@@H]1CN(Cc2ccccc2C#N)C[C@H]1NC(=O)N(C)C,-1.2%
19,Cn1nc(CNc2ncccn2)c2c1CN(c1cnccn1)CC2,-8.13%
20,Cc1cccc(C2(C(=O)NS(=O)(=O)c3cnn(C)c3)CCCC2)c1,-1.9%
